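Assay format: 96-well plates, 48-hour exposure. GI50: concentration for 50% inhibition of growth.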 The source made the active and inactive calls. Cut-off read from the data, not from the text of the source: active = GI50 up to about 1.1 µM and inactive = higher.
How the values were obtained:
Experiment in all cases: NCI-60 cell line screen, 48 h
TK-10 = tested on: TK-10
OVCAR-8 = tested on: OVCAR-8
HT-29 = tested on: HT-29
SK-OV-3 = tested on: SK-OV-3
RXF 393 = tested on: RXF 393
A549 = tested on: A549
786-0 = tested on: 786-0
NCI-H522 = tested on: NCI-H522
MDA-MB-435 = tested on: MDA-MB-435
EKVX = tested on: EKVX
MCF7 = tested on: MCF7
SW-620 = tested on: SW-620
SK-MEL-28 = tested on: SK-MEL-28
SF-539 = tested on: SF-539
HCT-116 = tested on: HCT-116
NCI-H226 = tested on: NCI-H226
UACC-257 = tested on: UACC-257
SNB-75 = tested on: SNB-75

Measured: GI50

C#C[C@@]1(O)CCCC2=CC3(CC[C@]21C)SCCS3
inactive: TK-10 > 100 µM | OVCAR-8 > 100 µM | HT-29 > 100 µM | SK-OV-3 > 100 µM | RXF 393 > 100 µM | A549 > 100 µM | 786-0 > 100 µM | NCI-H522 > 100 µM | MDA-MB-435 > 100 µM | EKVX > 100 µM | MCF7 > 100 µM | SW-620 > 100 µM | SK-MEL-28 > 100 µM | SF-539 > 100 µM | HCT-116 > 100 µM | NCI-H226 > 100 µM | UACC-257 > 100 µM

O=C1C2CC=CCC2C(=O)N1n1c(-c2ccccc2)n[nH]c1=O (stereo not given)
inactive: TK-10 > 100 µM | OVCAR-8 > 100 µM | HT-29 > 100 µM | SK-OV-3 > 100 µM | RXF 393 > 100 µM | A549 > 100 µM | 786-0 > 100 µM | NCI-H522 > 100 µM | MDA-MB-435 > 100 µM | EKVX > 100 µM | MCF7 > 100 µM | SW-620 > 100 µM | SF-539 > 100 µM | HCT-116 > 100 µM | NCI-H226 > 100 µM | UACC-257 > 100 µM

COC(=O)c1c(O)ccc2c1c1c(n2Cc2ccccc2OC)C(=O)c2ccccc2C1=O
inactive: TK-10 23.2 µM | OVCAR-8 4.42 µM | HT-29 8.18 µM | SK-OV-3 16.3 µM | RXF 393 13.1 µM | A549 5.64 µM | 786-0 11.4 µM | NCI-H522 11 µM | MDA-MB-435 10.3 µM | EKVX 24.5 µM | MCF7 6.34 µM | SW-620 14.2 µM | SK-MEL-28 15.8 µM | SF-539 19.3 µM | HCT-116 5.46 µM | NCI-H226 15.3 µM | UACC-257 22.9 µM

O=c1[nH]c2cc3cccnc3c(Cl)c2nc1CBr
inactive: TK-10 21.7 µM | OVCAR-8 17.9 µM | HT-29 19.5 µM | SK-OV-3 26 µM | RXF 393 17.7 µM | A549 19.3 µM | 786-0 6.49 µM | NCI-H522 11 µM | MDA-MB-435 16 µM | EKVX 16.1 µM | MCF7 10.1 µM | SW-620 11.4 µM | SF-539 11.2 µM | HCT-116 11.7 µM | NCI-H226 19.1 µM | UACC-257 18.7 µM

Cn1c(-c2ccc(/N=N/Nc3ccc(-c4n[nH]c(=S)n4C)cc3)cc2)n[nH]c1=S
inactive: TK-10 28.7 µM | OVCAR-8 4.6 µM | HT-29 > 100 µM | SK-OV-3 20.2 µM | RXF 393 11.6 µM | A549 > 100 µM | 786-0 52 µM | NCI-H522 4.05 µM | MDA-MB-435 > 100 µM | EKVX 20.6 µM | MCF7 12.1 µM | SW-620 > 100 µM | SNB-75 16 µM | SK-MEL-28 > 100 µM | HCT-116 25.7 µM | NCI-H226 5.36 µM | UACC-257 > 100 µM

COc1cc2c(cc1C)NC(=O)/C2=C/c1c(Cl)[nH]c2ccccc12
inactive: TK-10 10.4 µM | OVCAR-8 11.8 µM | HT-29 3.94 µM | SK-OV-3 1.47 µM | RXF 393 8.07 µM | A549 6.05 µM | 786-0 6.21 µM | NCI-H522 6.75 µM | MDA-MB-435 1.62 µM | EKVX 6.68 µM | MCF7 3.8 µM | SW-620 4.56 µM | SNB-75 7.87 µM | SK-MEL-28 7 µM | SF-539 1.3 µM | HCT-116 4.89 µM | UACC-257 10.7 µM
